The test system of this assay is Ficin. The assay is described as follows: absorbance at […] nm, steady-state kinetics, Michaelis-Menten fit. The format is biochemical. Conditions: peroxidase-like activity; 0.80 mM H2O2, 20 mM phosphate buffer pH 5.0, 35 °C; ping-pong.

SMILES strings stand for the structures.

For orientation: Km means the concentration of substrate that gives half-maximal velocity. As for `Cc1cc(-c2cc(C)c(N)c(C)c2)cc(C)c1N` [TMB], the Km was 0.19 ± 0.012 mM.

(Values after publication PMC5320487, “Intrinsic Peroxidase-like Activity of Ficin” (Scientific Reports, 2017).)
